Measurements: US20110281852A1 (priority 2010, published 2011)

Columns and labels:
[1] = Serum total cholesterol assay in mice; assay type: in vivo, mouse
Description: Six mice per subgroup were obtained finally.
Serum glucose, triglyceride, cholesterol assay: Blood samples from each mouse were collected and serum was separated by centrifugation for the measurement of levels of glucose, triglyceride and total cholesterol. Serum glucose concentrations were analyzed using Glucose (HK) Assay Kit (Sigma-aldrich, Saint Louis, Mo., USA). Serum triglyceride concentrations were analyzed using Serum Triglyceride Determination Kit (Sigma-aldrich, Saint Louis, Mo., USA). Serum cholesterol concentrations were analyzed using Amplex® Red Cholesterol Assay Kit (Invitrogen, Carlsbad, Calif., USA). All experimental assays were done according to the manufacturer's instructions.

PPARγ = test: Real-time RT-PCR, PPARγ mRNA in 3T3-L1; assay type: cell-based, mouse; conditions: 8 days
Text: (§1) Realtime RT-PCR: Real-time reverse transcriptase polymerase chain reaction (RT-PCR) analysis was used to measure mRNA expression of genes SREBP-1, PPARγ, C/EBPα, low density lipoprotein receptor (LDLR), Adiponectin, and fatty acid synthase (FAS) under the control of β-actin. Briefly, total RNA was isolated from 3T3-L1 cells following treatment for 8 days with Trizol reagent (Invitrogen, Carlsbad, Calif., USA) according to the manufacturer's instruction. RNA was quantified using absorption of light at 260 nm, and sample purity was checked by OD 260 nm/280 nm. 0.8 μg of total RNA from each sample was used for reverse transcription reaction using the TaqMan Reverse Transcription Reagents (Applied Biosystems, Foster City, Calif., USA) according to the manufacturers' instructions. PCR was done using the SYBR green Master Mix (Applied Biosystems, Foster City, Calif., USA) according to the manufacturers' instructions. The temperature cycling conditions of amplification were as follows: an initial step of denaturation at 95° C. for 10 min, 40 cycles of denaturation at 95° C. for 30 s, annealing at 55° C. for 30 s, and elongation at 72° C. for 30 s. Realtime RT-PCR was performed using Mx3000P Realtime Thermocyclers (Statagene, La Jolla, Calif., USA). The relative mRNA levels of these genes were calculated by 2-delta delta CT method and normalized with control groups.

Adiponectin = test: Real-time RT-PCR, Adiponectin mRNA in 3T3-L1; assay type: cell-based, mouse; conditions: 8 days
Text: as §1

GATA-2 [2] = test: Immunoblot, GATA-2 protein in epididymal fat of FD mice; assay type: in vivo, mouse; conditions: berberine treatment
Description: RNA and protein purification and quantification from epididymal fat tissues: RNA and protein was isolated from 60 mg of epididymal fat tissues with Trizol (Invitrogen, Carlsbad, Calif., USA) following the protocol recommended by the manufacturers. RNA was dissolved in pure water and quantified at 260/280 nm, and sample integrity was checked by 1.5% agarose gel electrophoresis. Protein concentration was determined using the Micro BCA Protein Assay Kit (Fisher Scientific, Pittsburgh, Pa., USA) according to the manufacturer's instructions.
Immunoblot Analysis: Protein expression of GATA-2, GATA-3, PPARγ and C/EBPα in the control of β-actin was assessed by Western Blot. Protein samples from the same group were homogenized as previously reported (Hu and Davies, Phytomedicine (2009) 16:864-873). Protein (25 μg) was separated by polyacrylamide gel electrophoresis using the BioRad Electrophoretic System (60 V for 1 h followed by 90 V for 5 h). The proteins were then transferred to nitrocellulose membranes at 35 V overnight. […]

GATA-2 [3] = test: Immunoblot, GATA-2 protein in HWP; assay type: cell-based, human; conditions: day 15
Description: Immunoblot Analysis: Protein expression of GATA-2, GATA-3, PPARγ and C/EBPα were assessed by Western Blot. Total proteins were isolated from HWP treated with compounds or vehicles on day 15. The cells were washed twice with PBS, lysed in a lysis buffer containing HEPES-Tx-PI buffer: […] HEPES, 5 mM EDTA, 350 mM Sucrose, 1 μg/ml leupeptin, 1 μg/ml pepstatin, 1% Triton-X, 1 mM PMSF), processed with a 25G needle and centrifuged at 10,000 rpm for 5 min. Protein concentration was determined using the Micro BCA Protein Assay Kit (Fisher Scientific, Pittsburgh, Pa., USA) according to the manufacturers instructions. 20 μg proteins were loaded and separated by electrophoresis using the BioRad Electrophoretic System (60 V for 1 hour followed by 90 V for 5 hours). The proteins were then transferred to nitrocellulose membranes at 35 V overnight. The membrane was blocked for 1 hour at room temperature in 5% nonfat milk in Tris-buffered saline (TBS), then washed with Tween-20-TBS (TTBS, 0.1% Tween-20) three times (15 min, 5 min, 5 min), followed by incubation with primary antibodies human GATA-2, GATA-3, PPARγ, C/EBPα and β-actin (dilution 1:200) (all antibodies were purchased from Santa Cruz Biotechnology, Santa Cruz, Calif., USA) at room temperature for 2 hours. The membrane was rinsed three times (15 min, 5 min, 5 min), then incubated at room temperature for 1 hour with Horseradish peroxidase-conjugated second antibody (1:10,000). The membrane was then incubated in ECL reagent (GE Healthcare, Piscataway, N.J., USA) for 1 minute. Protein was visualized using the UVP image analysis system (UVP, Upland, Calif., USA).

[4] = 8 μM berberine + 15 μM clozapine
[5] = 8 μM berberine + 50 μM risperidone

Compound | reduction of serum total cholesterol level ([1]; FD mice, 0.75 mg/kg/day) [%] | serum total cholesterol level ([1]; FD mice, 0.75 mg/kg/day, 36 days (control 152.4±15.2)) [mg/dL] | reduction of serum total cholesterol level ([1]; FD mice, 1.5 mg/kg/day) [%] | serum total cholesterol level ([1]; FD mice, 1.5 mg/kg/day, 36 days) [mg/dL] | reduction of serum total cholesterol level ([1]; FD mice, 3 mg/kg/day) [%] | serum total cholesterol level ([1]; FD mice, 3 mg/kg/day, 36 days) [mg/dL] | serum total cholesterol level ([1]; ND mice, 3 mg/kg/day (control 96.5±16.5)) [mg/dL] | decrease of PPARγ mRNA expression vs clozapine treated group (PPARγ; [4]) [%] | decrease of PPARγ mRNA expression vs risperidone treated group (PPARγ; [5]) [%] | decrease of adiponectin mRNA expression vs clozapine treated group (Adiponectin; [4]) [%] | decrease of Adiponectin mRNA expression vs risperidone treated group (Adiponectin; [5]) [%] | quantitative protein expression of GATA-2 (GATA-2 [2]) | GATA-2 protein expression relative to β-actin, normalized with controls (GATA-2 [3]; 1 μM) [fold] | GATA-2 protein expression relative to β-actin, normalized with controls (GATA-2 [3]; 2 μM) [fold] | GATA-2 protein expression relative to β-actin, normalized with controls (GATA-2 [3]; 4 μM) [fold]
COc1ccc2cc3[n+](cc2c1OC)CCc1cc2c(cc1-3)OCO2.[Cl-] [berberine, Berberine (Chloride Form)] | 18.7 | 123.9 ± 16.5 | 22.2 | 118.5 ± 14.7 | 28 | 109.8 ± 22.7 | 97.4 ± 18.3 | 87.7 | 93.1 | 96.3 | 98.2 | did not appear to be significantly changed | – | – | –
evodiamine | – | – | – | – | – | – | – | – | – | – | – | – | 2.44 | 4.81 | 4.92
